Patent publication US20180289655A1, “Methods and Compositions for the Intravenous Administration of Fumarates for the Treatment of Neurological Diseases” (Biogen MA Inc., priority 2015, published 2018)
Where a name gives a salt, the structure may show the parent alone.

Experiments:
[1] = Solution stability of DMF in aqueous solution (HPLC); type: physicochemical; parameters: DMF assay: unit not given here
Experimental: Solution stability studies were conducted using 0.2 mg/ml concentration solutions, which were achieved by mixing equal volumes of the stock solution and individual study media. […] Samples stored at 37° C. or ambient temperature were pulled at predetermined time points, and analyzed by HPLC.

SOD1-G93A mice = assay: SOD1-G93A mouse model of ALS, oral DMF; type: in vivo; settings: DMF p.o. 100 mg/kg daily
Experimental: Motor performance was assessed by rotarod at day 85, 100, and 115. Health was monitored by clinical observation and body weight. […] Body weight was modestly impacted by DMF.
Thirty-two female SOD1-G93A mice were purchased from Jackson Laboratories (Line 2726). All mice were transgene positive. Sixteen mice were used per dosing group. Dosing began at day 50-55. All procedures were conducted in accordance with the NIH Guide for the Care and Use of Laboratory Animals and were approved by the Biogen Idec Institutional Animal Care and Use Committee (IACUC Protocol No. 0408-2011).
Mice were dosed once daily either with vehicle or DMF. Dosing volume was 10 ml/kg, introduced by oral gavage.
Disease onset and progression in the SOD1-G93A was monitored by three approaches. All approaches were done in a blinded fashion. Body weight was recorded on a daily basis. Mice were also inspected on a daily basis for disease onset, as defined by leg tremor or decreased hind limb flexion upon tail lift. Mice were also assessed on an accelerating rotarod test at weeks 12, 14, and 16. For this test, mice were first acclimated to a rod rotating at 2 rpm for 300 seconds once a day for two days. For the actual test, mice are placed on rod accelerating from 2 to 40 rpm over 90 seconds. Upon reaching full speed, the test continues for an additional 30 seconds. Mice were tested three times per day and the longest time recorded. Mice that were unable to remain on the rod for 20 seconds were excluded from further testing.
Mice were determined to have reached endpoint criteria for humane euthanasia when then when they failure to right from either side within 15 seconds.
For rotarod and body weight, values were compared by two-way ANOVA. Body weight was further evaluated by break point analysis. Break point analysis identifies the inflection point of a curve, by completing a series of linear regression fits. The intersection of the curve fits for the ascending and descending slopes with the minimal residual error is defined as the break point. For each mouse, the breakpoint was determined. The two groups were then compared by Student's T-test. Differences in onset and survival were tested for using the Mantel-Cox log rank test. A further test with the Cox proportional hazards test incorporating littermate status was completed.

[2] = SGF (without pepsin), 0.2 mg/ml, initial
[3] = SGF (without pepsin), 37° C., 24 hr
[4] = SGF (without pepsin), ambient temperature, 24 hr
[5] = SGF (without pepsin), ambient temperature, 48 hr
[6] = SGF (without pepsin), ambient temperature, 72 hr
[7] = SIF (without pancreatin), 0.2 mg/ml, initial
[8] = SIF (without pancreatin), 37° C., 24 hr
[9] = SIF (without pancreatin), ambient temperature, 24 hr
[10] = SIF (without pancreatin), ambient temperature, 48 hr
[11] = SIF (without pancreatin), ambient temperature, 72 hr
[12] = Water, ambient temperature, 24 hr
[13] = Water, ambient temperature, 48 hr
[14] = Water, ambient temperature, 72 hr
[15] = pH 2 Citrate Buffer, 0.2 mg/ml, initial
[16] = pH 2 Citrate Buffer, 37° C., 24 hr
[17] = pH 2 Citrate Buffer, ambient temperature, 24 hr
[18] = pH 2 Citrate Buffer, ambient temperature, 48 hr
[19] = pH 2 Citrate Buffer, ambient temperature, 72 hr
[20] = pH 4 Citrate Buffer, 0.2 mg/ml, initial
[21] = pH 4 Citrate Buffer, 37° C., 24 hr
[22] = pH 4 Citrate Buffer, ambient temperature, 24 hr
[23] = pH 4 Citrate Buffer, ambient temperature, 48 hr
[24] = pH 4 Citrate Buffer, ambient temperature, 72 hr
[25] = pH 6 Citrate Buffer, 0.2 mg/ml, initial
[26] = pH 6 Citrate Buffer, 37° C., 24 hr
[27] = pH 6 Citrate Buffer, ambient temperature, 24 hr
[28] = pH 6 Citrate Buffer, ambient temperature, 48 hr
[29] = pH 6 Citrate Buffer, ambient temperature, 72 hr
[30] = pH 8 Borate Buffer, 0.2 mg/ml, initial
[31] = pH 8 Borate Buffer, 37° C., 24 hr
[32] = pH 8 Borate Buffer, ambient temperature, 24 hr
[33] = pH 10 Borate Buffer, 0.2 mg/ml, initial
[34] = pH 10 Borate Buffer, 37° C., 24 hr
[35] = pH 10 Borate Buffer, ambient temperature, 24 hr

With `COC(=O)/C=C/C(=O)OC` [DMF, dimethyl fumarate] as the molecule, how does the “Stability of DMF in solution at higher pH” value ([1]; 37° C., aqueous media) read?
The value was “decreased rapidly as the solution pH went above 7”.

What about the “pH of maximum stability of DMF in solution” value ([1]; 37° C., aqueous media) of the same molecule?
The value was ~4.

And the DMF area % [1, 2]?
Its DMF area % is 99.3 area %.

What about the DMF assay [1, 2] of the same molecule?
Its DMF assay is 102.9.

And the DMF area % [1, 3]?
Its DMF area % is 92.2 area %.

What about the DMF assay [1, 3] of the same molecule?
The DMF assay was 91.1.

What about the DMF area % [1, 4] of the same molecule?
Its DMF area % is 96.6 area %.

What about the DMF assay [1, 4] of the same molecule?
The DMF assay was “(95.2)”.

What about the DMF area % [1, 5] of the same molecule?
The DMF area % was 95.6 area %.

What about the DMF assay [1, 5] of the same molecule?
Its DMF assay is “(92.5)”.

What about the DMF area % [1, 6] of the same molecule?
The DMF area % was 95.4 area %.

And the DMF assay [1, 6]?
Its DMF assay is “(91.6)”.

What about the DMF area % [1, 7] of the same molecule?
The DMF area % was 99.3 area %.

What about the DMF assay [1, 7] of the same molecule?
The DMF assay was 100.9.

What about the DMF area % [1, 8] of the same molecule?
The DMF area % was 29.5 area %.

What about the DMF assay [1, 8] of the same molecule?
Its DMF assay is 27.8.

What about the DMF area % [1, 9] of the same molecule?
Its DMF area % is 68.7 area %.

What about the DMF assay [1, 9] of the same molecule?
Its DMF assay is “(68.3)”.

And the DMF area % [1, 10]?
The DMF area % was 64.5 area %.

And the DMF assay [1, 10]?
The DMF assay was “(60.3)”.

What about the DMF area % [1, 11] of the same molecule?
Its DMF area % is 62.2 area %.

And the DMF assay [1, 11]?
The DMF assay was “(59.0)”.

And the DMF area % ([1]; Water, 0.2 mg/ml, initial)?
Its DMF area % is 96.6 area %.

What about the DMF assay ([1]; Water, 0.2 mg/ml, initial) of the same molecule?
The DMF assay was 98.9.

And the DMF area % ([1]; Water, 37° C., 24 hr)?
The DMF area % was 77.4 area %.

What about the DMF assay ([1]; Water, 37° C., 24 hr) of the same molecule?
Its DMF assay is 73.9.

What about the DMF area % [1, 12] of the same molecule?
Its DMF area % is 84.8 area %.

And the DMF assay [1, 12]?
The DMF assay was “(81.6)”.

And the DMF area % [1, 13]?
The DMF area % was 85.1 area %.

What about the DMF assay [1, 13] of the same molecule?
The DMF assay was “(80.2)”.

What about the DMF area % [1, 14] of the same molecule?
The DMF area % was 83.5 area %.

And the DMF assay [1, 14]?
Its DMF assay is “(79.3)”.

And the DMF area % [1, 15]?
The DMF area % was 99.5 area %.

And the DMF assay [1, 15]?
Its DMF assay is 101.0.

What about the DMF area % [1, 16] of the same molecule?
Its DMF area % is 97.9 area %.

What about the DMF assay [1, 16] of the same molecule?
The DMF assay was 96.0.

And the DMF area % [1, 17]?
Its DMF area % is 99.1 area %.

What about the DMF assay [1, 17] of the same molecule?
The DMF assay was “(94.7)”.

What about the DMF area % [1, 18] of the same molecule?
Its DMF area % is 98.9 area %.

And the DMF assay [1, 18]?
Its DMF assay is “(93.2)”.

What about the DMF area % [1, 19] of the same molecule?
The DMF area % was 98.7 area %.

And the DMF assay [1, 19]?
The DMF assay was “(92.0)”.

What about the DMF area % [1, 20] of the same molecule?
Its DMF area % is 99.8 area %.

What about the DMF assay [1, 20] of the same molecule?
The DMF assay was 101.9.

And the DMF area % [1, 21]?
Its DMF area % is 99.6 area %.

And the DMF assay [1, 21]?
Its DMF assay is 100.4.

And the DMF area % [1, 22]?
Its DMF area % is 99.6 area %.

What about the DMF assay [1, 22] of the same molecule?
The DMF assay was “(97.2)”.

What about the DMF area % [1, 23] of the same molecule?
The DMF area % was 99.2 area %.

And the DMF assay [1, 23]?
The DMF assay was “(98.5)”.

What about the DMF area % [1, 24] of the same molecule?
Its DMF area % is 99.6 area %.

What about the DMF assay [1, 24] of the same molecule?
Its DMF assay is “(93.9)”.

And the DMF area % [1, 25]?
The DMF area % was 100 area %.

What about the DMF assay [1, 25] of the same molecule?
Its DMF assay is 101.4.

And the DMF area % [1, 26]?
Its DMF area % is 92.6 area %.

What about the DMF assay [1, 26] of the same molecule?
Its DMF assay is 91.8.

What about the DMF area % [1, 27] of the same molecule?
Its DMF area % is 97.5 area %.

And the DMF assay [1, 27]?
The DMF assay was “(90.7)”.

What about the DMF area % [1, 28] of the same molecule?
Its DMF area % is 95.3 area %.

What about the DMF assay [1, 28] of the same molecule?
The DMF assay was “(92.5)”.

And the DMF area % [1, 29]?
The DMF area % was 96.1 area %.

And the DMF assay [1, 29]?
Its DMF assay is “(88.4)”.

What about the DMF area % [1, 30] of the same molecule?
Its DMF area % is 98.6 area %.

What about the DMF assay [1, 30] of the same molecule?
The DMF assay was 101.0.

And the DMF area % [1, 31]?
Its DMF area % is 17.2 area %.

And the DMF assay [1, 31]?
Its DMF assay is 15.9.

What about the DMF area % [1, 32] of the same molecule?
The DMF area % was 46.5 area %.

And the DMF assay [1, 32]?
The DMF assay was “(44.8)”.

What about the DMF area % [1, 33] of the same molecule?
Its DMF area % is 37.1 area %.

What about the DMF assay [1, 33] of the same molecule?
Its DMF assay is 36.1.

And the DMF area % [1, 34]?
Its DMF area % is 0/0 area %.

And the DMF assay [1, 34]?
The DMF assay was 0/0.

And the DMF area % [1, 35]?
Its DMF area % is 0/0 area %.

And the DMF assay [1, 35]?
The DMF assay was 0/0.

And the “Degradation of DMF before initial HPLC determination” value ([1]; pH 10 borate buffer solution)?
Its value is “more than half of DMF degraded before an initial concentration was able to be determined”.

What about the “Disease onset as assessed by limb splay” value (SOD1-G93A mice) of the same molecule?
The value was “did not significantly change onset”.

What about the Survival (SOD1-G93A mice) of the same molecule?
Its Survival is “did not prolong survival”.

What about the “Transition from weight gain to weight loss (breakpoint analysis)” value (SOD1-G93A mice; p<0.05) of the same molecule?
Its value is “significantly delayed”.

What about the Rotarod performance (SOD1-G93A mice; weeks 12, 14, 16) of the same molecule?
Its Rotarod performance is “did not alter rotarod performance”.
